“And” between values parts separate entries of the source, which are not always exact repeats. Equal entries are not always repeated.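 Five compound concentrations were applied to cells in 96-well plates for 48 hours; endpoints were derived by simple linear interpolation of the resulting dose-response curve. GI50 = concentration required for 50% inhibition of growth. TGI marks complete inhibition of growth.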

Some test systems named below: UO-31 renal; SNB-75 CNS; SK-MEL-5 melanoma; HCT-15 colon; M14 melanoma; OVCAR-5 ovarian; LOX IMVI melanoma; SW-620 colon; DU-145 prostate; RPMI-8226 leukemia.
What all share (experiment): DTP human tumour cell line panel, 48 h

In the case of `CCOC(=O)c1c(NC(=O)c2cccc(C(F)(F)F)c2)sc2c(CN(C)C)c(O)ccc12`, the GI50 was 3.34 µM with UO-31 renal; 11.1 µM with SNB-75 CNS; 2.36 µM in the test on SK-MEL-5 melanoma; 2.13 µM with HCT-15 colon; 1.89 µM in the test on M14 melanoma; 4.58 µM with OVCAR-5 ovarian. Moreover, the GI50 is 2.7 µM in the test on LOX IMVI melanoma, 2.31 µM in the test on SW-620 colon and 5.82 µM in the test with DU-145 prostate. The TGI with UO-31 renal was determined as 14.4 µM; with SNB-75 CNS, 26.8 µM; in the test on SK-MEL-5 melanoma, 5.72 µM; in the test on HCT-15 colon, 5.77 µM; in the test on M14 melanoma, 3.53 µM; in the test with OVCAR-5 ovarian, 16.7 µM. For the same compound, the figures for the TGI in the test with LOX IMVI melanoma, in the test on SW-620 colon and in the test on DU-145 prostate were 7.52 µM, 5.53 µM and 17.9 µM, respectively.
For `N=C(N)c1ccc2nc(-c3cc(CC(=O)N[C@@H](CC(=O)O)C(=O)O)cc(-c4cc(S(N)(=O)=O)ccc4O)c3O)[nH]c2c1`, the GI50 with RPMI-8226 leukemia, in the test on UO-31 renal, in the test with SNB-75 CNS, in the test on SK-MEL-5 melanoma, in the test on HCT-15 colon and with M14 melanoma was above 100 µM throughout. The GI50 in the test on OVCAR-5 ovarian, in the test on LOX IMVI melanoma, in the test with SW-620 colon and in the test with DU-145 prostate was above 100 µM in each case. For the same compound, the TGI in the test on RPMI-8226 leukemia, in the test with UO-31 renal, in the test with SNB-75 CNS, in the test with SK-MEL-5 melanoma, in the test on HCT-15 colon and in the test on M14 melanoma was above 100 µM in each case. Also, the TGI in the test on OVCAR-5 ovarian, in the test with LOX IMVI melanoma, in the test on SW-620 colon and in the test with DU-145 prostate was above 100 µM in each case.
As to `Cc1nc2sc3c(c2c(=O)[nH]1)CCCC3`, the TGI was above 100 µM with RPMI-8226 leukemia; 68.2 µM in the test on UO-31 renal; above 100 µM in the test with SNB-75 CNS; above 100 µM with SK-MEL-5 melanoma; above 100 µM in the test on HCT-15 colon; above 100 µM with M14 melanoma. In addition, the TGI with OVCAR-5 ovarian, in the test with LOX IMVI melanoma, in the test on SW-620 colon and in the test on DU-145 prostate was above 100 µM throughout.
As to `COc1cc(OC)c(/C=C/c2c3ccccc3cc[n+]2C)c(OC)c1`, the concentration for 50% growth inhibition (GI50) in the test with RPMI-8226 leukemia was 0.377 µM; in the test with UO-31 renal, 18.5 µM; in the test on SNB-75 CNS, 1.27 µM; in the test on SK-MEL-5 melanoma it was 0.642 µM; in the test on HCT-15 colon it was 24.7 µM; in the test with M14 melanoma it was 2.62 µM. The GI50 was 3.04 µM with OVCAR-5 ovarian, 2.01 µM in the test on LOX IMVI melanoma, 2.12 µM in the test on SW-620 colon and 2.96 µM in the test with DU-145 prostate. In addition, the TGI with RPMI-8226 leukemia was 6.92 µM; with UO-31 renal it was above 100 µM; in the test with SNB-75 CNS, 8.01 µM; in the test with SK-MEL-5 melanoma, 2.21 µM; with HCT-15 colon it was above 100 µM; with M14 melanoma, 15.4 µM. Moreover, the total growth inhibition concentration (TGI) in the test with OVCAR-5 ovarian is above 49 µM; in the test with LOX IMVI melanoma, 5.9 µM; in the test on SW-620 colon, 14.2 µM; in the test on DU-145 prostate, 48.8 µM.
For `O=C(Nc1ccc(-n2ccc3c(NC(=O)c4ccccc4)nccc32)cc1)Nc1ccc(Cl)c(Cl)c1`, the GI50 in the test on RPMI-8226 leukemia was 0.482 µM; in the test on UO-31 renal, 1.6 µM; in the test on SNB-75 CNS, 0.489 µM; in the test on SK-MEL-5 melanoma, 0.748 µM; in the test on HCT-15 colon, 0.201 µM; in the test on M14 melanoma, 1.47 µM. Further, the GI50 in the test with OVCAR-5 ovarian is 3.52 µM; in the test with LOX IMVI melanoma, 0.503 µM; in the test on SW-620 colon, 1.08 µM; in the test on DU-145 prostate, 1.57 µM. In addition, the TGI in the test on RPMI-8226 leukemia came to 3.08 µM; in the test with UO-31 renal, 4.1 µM; with SNB-75 CNS it was 2.34 µM; with SK-MEL-5 melanoma, 2.2 µM; with HCT-15 colon, 2.84 µM; in the test on M14 melanoma, 2.93 µM. In addition, the TGI amounted to 32.9 µM in the test on OVCAR-5 ovarian, 2.28 µM in the test on LOX IMVI melanoma, 2.51 µM in the test with SW-620 colon and 3.92 µM with DU-145 prostate.
As to `Cc1cc(C)c(NC(=O)c2sc3nc4c(cc3c2N)CN(Cc2ccccc2)CC4)c(C)c1`, the GI50 was 3.18 µM in the test with RPMI-8226 leukemia; 4.78 µM in the test on UO-31 renal; 2.35 µM in the test with SNB-75 CNS; 1.47 µM with SK-MEL-5 melanoma; 2.12 µM with HCT-15 colon; 2.89 µM with M14 melanoma. Also, the GI50 in the test with OVCAR-5 ovarian is 12.5 µM; with LOX IMVI melanoma it was 5.01 µM; in the test on SW-620 colon, 2.6 µM; in the test with DU-145 prostate it was 2.62 µM. Further, the concentration for total growth inhibition (TGI) in the test on RPMI-8226 leukemia was 35.1 µM; with UO-31 renal, 93.9 µM; in the test with SNB-75 CNS, 11 µM; with SK-MEL-5 melanoma it was 11.5 µM; with HCT-15 colon, above 100 µM; in the test with M14 melanoma, 31.5 µM. The TGI was above 100 µM in the test on OVCAR-5 ovarian, 18.1 µM in the test on LOX IMVI melanoma, 17.1 µM in the test on SW-620 colon and 7.65 µM with DU-145 prostate.
`O=C(Nc1ccc(F)cc1)c1cc(S(=O)(=O)Nc2nc3ccccc3o2)c(SCc2ccccc2)cc1Cl`: the GI50 with RPMI-8226 leukemia was 17.8 µM; in the test with UO-31 renal, 14.1 µM; in the test with SNB-75 CNS it was 24.3 µM; in the test on SK-MEL-5 melanoma, 17.9 µM; with HCT-15 colon, 15.8 µM; in the test on M14 melanoma it was 16 µM. Also, the GI50 in the test on OVCAR-5 ovarian was 19.7 µM; in the test with LOX IMVI melanoma, 18 µM; with SW-620 colon, 17.6 µM; in the test with DU-145 prostate, 19.2 µM. The TGI was determined as 56.8 µM with RPMI-8226 leukemia; 29.2 µM in the test on UO-31 renal; 56.9 µM in the test on SNB-75 CNS; 31.9 µM in the test on SK-MEL-5 melanoma; 30.1 µM in the test with HCT-15 colon; 30.8 µM in the test on M14 melanoma. Besides, the TGI was 35.1 µM in the test with OVCAR-5 ovarian, 34.2 µM with LOX IMVI melanoma, 33.3 µM with SW-620 colon and 35.4 µM in the test with DU-145 prostate.
Turning to `CC[C@H]1CN2CCc3cc(OC)c(OC)cc3[C@@H]2C[C@@H]1C[C@H]1NCCc2c1[nH]c1ccc(O)cc21`, the GI50 in the test with RPMI-8226 leukemia was 0.0272 µM and 0.0305 µM; with UO-31 renal, 0.251 µM and 1.2 µM; with SNB-75 CNS, 0.032 µM and 0.0223 µM; in the test with SK-MEL-5 melanoma it was 0.0234 µM and 0.14 µM; in the test with HCT-15 colon, 0.688 µM; in the test with M14 melanoma it was 0.0365 µM and 0.0275 µM. In addition, the GI50 is 0.0246 µM and 0.0401 µM in the test on OVCAR-5 ovarian; 0.00434 µM and 0.0207 µM in the test on LOX IMVI melanoma; 0.0286 µM and 0.0339 µM with SW-620 colon; 0.0249 µM with DU-145 prostate. Besides, the TGI was 0.772 µM and 4.5 µM and 1.9 µM with UO-31 renal; 0.111 µM and 0.0732 µM and 0.0544 µM with SNB-75 CNS; 0.0553 µM and 0.294 µM and 0.0304 µM in the test with SK-MEL-5 melanoma; 5.38 µM and 4.1 µM in the test with HCT-15 colon; 0.162 µM and 0.0729 µM and 0.0478 µM with M14 melanoma; 0.091 µM and 0.335 µM and 0.379 µM in the test on OVCAR-5 ovarian. Also, the concentration for total growth inhibition (TGI) in the test on LOX IMVI melanoma was 0.0223 µM and 0.0902 µM and < 0.0107 µM; in the test with DU-145 prostate, 0.0584 µM.

What is called GI50 is the concentration that inhibits growth by half. What is called TGI is the concentration giving total growth inhibition. A high value points to lower sensitivity of the cells.

The values above are taken from PubChem BioAssay (NCI).
